Activity calls are given as the source filed them. The rule behind the calls is not given here.
Assays:
MV4-11 [1] = test: Cytotoxicity in human MV4-11 cells assessed as induction of cell death at 10 uM incubated for 72 hrs by CellTiter-Blue assay; type: functional
MV4-11 [2] = test: cells; details: Homo sapiens, MV4-11, 72 h
[3] = test system: T1, Receptor-type tyrosine-protein kinase FLT3 (Homo sapiens), P36888 [D835Y]; test: Inhibition of recombinant human FLT3 D835Y mutant (571 to 993 residues) expressed in baculovirus expression system at 100 nM preincubated for 30 mins in presence of 1000 fold glutathione followed by myelobasic protein addition and measured after 120 mins relative to control
T1 sequence (whole entry): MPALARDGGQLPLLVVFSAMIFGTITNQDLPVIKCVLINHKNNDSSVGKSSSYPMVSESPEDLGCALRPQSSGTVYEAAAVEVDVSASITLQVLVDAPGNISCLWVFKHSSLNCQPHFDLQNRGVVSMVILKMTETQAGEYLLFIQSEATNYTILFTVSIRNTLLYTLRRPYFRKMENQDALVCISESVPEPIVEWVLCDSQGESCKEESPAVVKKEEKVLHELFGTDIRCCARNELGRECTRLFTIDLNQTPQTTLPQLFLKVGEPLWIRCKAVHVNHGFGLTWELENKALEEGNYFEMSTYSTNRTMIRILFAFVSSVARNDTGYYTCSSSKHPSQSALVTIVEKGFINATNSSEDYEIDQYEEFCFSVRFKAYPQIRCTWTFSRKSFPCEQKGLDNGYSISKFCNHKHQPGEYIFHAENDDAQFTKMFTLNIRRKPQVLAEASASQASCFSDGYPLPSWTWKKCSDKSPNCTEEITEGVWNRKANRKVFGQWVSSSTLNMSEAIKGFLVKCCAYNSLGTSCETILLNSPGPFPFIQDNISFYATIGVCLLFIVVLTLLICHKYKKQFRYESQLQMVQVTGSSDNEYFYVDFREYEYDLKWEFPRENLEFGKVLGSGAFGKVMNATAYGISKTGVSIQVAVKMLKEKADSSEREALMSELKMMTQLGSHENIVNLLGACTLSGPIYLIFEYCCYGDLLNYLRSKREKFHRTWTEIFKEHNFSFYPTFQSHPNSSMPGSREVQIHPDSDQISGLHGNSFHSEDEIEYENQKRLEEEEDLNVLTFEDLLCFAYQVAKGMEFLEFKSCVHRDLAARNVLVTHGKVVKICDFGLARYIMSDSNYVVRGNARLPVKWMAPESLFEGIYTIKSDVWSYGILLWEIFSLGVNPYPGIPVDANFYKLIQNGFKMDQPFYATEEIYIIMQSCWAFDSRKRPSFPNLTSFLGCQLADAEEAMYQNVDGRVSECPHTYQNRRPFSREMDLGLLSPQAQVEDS

[4] = test system: T1, Receptor-type tyrosine-protein kinase FLT3 (Homo sapiens), P36888 [D835Y]; test: Inhibition of recombinant human FLT3 D835Y mutant (571 to 993 residues) expressed in baculovirus expression system at 100 nM preincubated for 24 hrs in presence of 1000 fold glutathione followed by myelobasic protein addition and measured after 120 mins relative to control
[5] = target: Receptor-type tyrosine-protein kinase FLT3 (Homo sapiens, UniProt P36888, D835Y); test: Irreversible inhibition of recombinant human FLT3 D835Y mutant (571 to 993 residues) expressed in baculovirus expression system preincubated for 5 to 30 mins followed by myelobasic protein addition measured after 120 mins in presence of ATP by ADP-Glo assay
[6] = target: Receptor-type tyrosine-protein kinase FLT3 (Homo sapiens) (UniProt P36888); test: Inhibition of human N-terminal GST-tagged FLT3 expressed in baculovirus expression system at 100 nM relative to control
[7] = test system: T1, Receptor-type tyrosine-protein kinase FLT3 (Homo sapiens), P36888 [D835Y]; test: Inhibition of human FLT3 D835Y mutant expressed in baculovirus expression system at 100 nM relative to control
[8] = target: Mast/stem cell growth factor receptor Kit (Homo sapiens) (UniProt P10721); test: Inhibition of human N-terminal GST-tagged c-KIT expressed in baculovirus expression system at 100 nM relative to control
[9] = target: Mitogen-activated protein kinase 3 (Homo sapiens) (UniProt P27361); test: Inhibition of full length N-terminal GST-tagged human ERK1 expressed in baculovirus expression system assessed as residual activity at 100 nM relative to control
Chain of Mitogen-activated protein kinase 3 (Homo sapiens) (P27361 whole entry, the tested form may be a part): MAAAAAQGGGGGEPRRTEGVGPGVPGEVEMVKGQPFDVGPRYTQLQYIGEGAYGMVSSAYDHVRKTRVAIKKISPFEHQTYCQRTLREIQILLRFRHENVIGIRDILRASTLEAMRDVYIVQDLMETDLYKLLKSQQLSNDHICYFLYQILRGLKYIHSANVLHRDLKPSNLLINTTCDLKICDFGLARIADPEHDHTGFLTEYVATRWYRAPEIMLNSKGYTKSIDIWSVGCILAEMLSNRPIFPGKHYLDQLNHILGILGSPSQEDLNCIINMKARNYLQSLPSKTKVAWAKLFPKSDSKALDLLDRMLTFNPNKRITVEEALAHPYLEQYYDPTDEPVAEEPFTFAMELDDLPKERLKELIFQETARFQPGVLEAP

[10] = target: Mitogen-activated protein kinase 1 (Homo sapiens) (UniProt P28482); test: Inhibition of human N-terminal GST-tagged ERK2 (14 to 429 residues) expressed in baculovirus expression system assessed as residual activity at 100 nM relative to control
Chain of Mitogen-activated protein kinase 1 (Homo sapiens) (P28482 whole entry, the tested form may be a part): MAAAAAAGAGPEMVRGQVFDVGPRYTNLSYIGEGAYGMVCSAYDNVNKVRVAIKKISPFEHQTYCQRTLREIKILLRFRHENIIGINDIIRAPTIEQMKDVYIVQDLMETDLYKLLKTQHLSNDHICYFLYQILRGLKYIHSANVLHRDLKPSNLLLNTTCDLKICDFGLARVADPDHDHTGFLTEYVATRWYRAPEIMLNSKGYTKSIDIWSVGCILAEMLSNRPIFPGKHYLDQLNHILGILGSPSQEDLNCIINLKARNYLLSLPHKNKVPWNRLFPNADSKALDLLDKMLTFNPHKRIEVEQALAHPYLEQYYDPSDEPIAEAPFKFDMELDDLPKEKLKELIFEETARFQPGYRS

[11] = target: Glycogen synthase kinase-3 alpha (Homo sapiens) (UniProt P49840); test: Inhibition of human N-terminal His-tagged GSK3alpha expressed in baculovirus expression system assessed as residual activity at 100 nM relative to control
[12] = target: Glycogen synthase kinase-3 beta (Homo sapiens) (UniProt P49841); test: Inhibition of human N-terminal His-tagged GSK3beta expressed in baculovirus expression system assessed as residual activity at 100 nM relative to control
Chain of Glycogen synthase kinase-3 beta (Homo sapiens) (P49841 whole entry, looked up): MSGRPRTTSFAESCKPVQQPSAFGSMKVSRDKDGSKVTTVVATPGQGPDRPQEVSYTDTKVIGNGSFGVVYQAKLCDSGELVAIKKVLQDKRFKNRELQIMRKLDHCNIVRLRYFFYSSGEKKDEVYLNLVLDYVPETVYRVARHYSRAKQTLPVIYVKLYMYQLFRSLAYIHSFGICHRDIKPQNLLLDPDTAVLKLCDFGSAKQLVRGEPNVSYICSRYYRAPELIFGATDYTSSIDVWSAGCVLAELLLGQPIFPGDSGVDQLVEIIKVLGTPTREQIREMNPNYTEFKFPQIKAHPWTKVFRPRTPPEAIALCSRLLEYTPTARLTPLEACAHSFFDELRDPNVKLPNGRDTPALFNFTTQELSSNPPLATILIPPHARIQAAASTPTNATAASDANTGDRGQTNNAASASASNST

[13] = target: Platelet-derived growth factor receptor alpha (Homo sapiens) (UniProt P16234); test: Inhibition of full length human N-terminal 6His-tagged PDGFRalpha expressed in baculovirus expression system at 100 nM relative to control
[14] = target: Platelet-derived growth factor receptor beta (Homo sapiens) (UniProt P09619); test: Inhibition of full length human N-terminal GST-tagged PDGFRbeta expressed in baculovirus expression system at 100 nM relative to control
Chain of Platelet-derived growth factor receptor beta (Homo sapiens) (P09619 whole entry): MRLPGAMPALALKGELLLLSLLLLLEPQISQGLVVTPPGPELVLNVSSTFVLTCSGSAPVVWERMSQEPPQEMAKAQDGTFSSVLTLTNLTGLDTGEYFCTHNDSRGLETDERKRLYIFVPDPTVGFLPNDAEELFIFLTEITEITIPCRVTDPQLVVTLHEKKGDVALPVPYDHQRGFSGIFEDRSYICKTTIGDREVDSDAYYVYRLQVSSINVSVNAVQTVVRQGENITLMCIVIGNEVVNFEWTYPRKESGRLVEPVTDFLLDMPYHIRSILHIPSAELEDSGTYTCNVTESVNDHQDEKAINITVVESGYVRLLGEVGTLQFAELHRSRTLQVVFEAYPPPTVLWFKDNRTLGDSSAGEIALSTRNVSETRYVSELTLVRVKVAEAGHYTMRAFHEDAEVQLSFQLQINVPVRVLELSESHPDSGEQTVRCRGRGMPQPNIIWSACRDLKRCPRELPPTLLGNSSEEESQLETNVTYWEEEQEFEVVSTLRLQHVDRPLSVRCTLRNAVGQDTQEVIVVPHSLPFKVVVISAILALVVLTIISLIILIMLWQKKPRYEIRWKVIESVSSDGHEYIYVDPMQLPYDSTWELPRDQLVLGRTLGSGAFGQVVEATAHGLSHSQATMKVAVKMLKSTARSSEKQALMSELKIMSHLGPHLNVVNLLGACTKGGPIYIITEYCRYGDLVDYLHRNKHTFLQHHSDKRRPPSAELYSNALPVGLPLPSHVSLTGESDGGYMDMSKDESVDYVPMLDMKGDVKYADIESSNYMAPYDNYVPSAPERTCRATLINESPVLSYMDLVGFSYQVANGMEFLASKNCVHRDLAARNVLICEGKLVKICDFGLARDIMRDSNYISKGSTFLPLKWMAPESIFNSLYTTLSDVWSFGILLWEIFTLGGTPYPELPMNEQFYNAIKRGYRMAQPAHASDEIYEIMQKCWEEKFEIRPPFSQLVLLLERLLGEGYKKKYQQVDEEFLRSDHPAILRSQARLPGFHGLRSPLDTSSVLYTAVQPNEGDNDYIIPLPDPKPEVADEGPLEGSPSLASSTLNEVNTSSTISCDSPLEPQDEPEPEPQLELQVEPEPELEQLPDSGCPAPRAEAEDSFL

[15] = target: T2, Receptor-type tyrosine-protein kinase FLT3 (Homo sapiens, UniProt P36888); test: Binding affinity to auto-inhibited form of wild type human N-terminal GST-tagged FLT3 expressed in baculovirus expression
[16] = target: Proto-oncogene tyrosine-protein kinase receptor Ret (Homo sapiens) (UniProt P07949); test: Inhibition of full length human N-terminal GST-tagged RET expressed in baculovirus expression system at 100 nM relative to control
[17] = target: Tyrosine-protein kinase Lyn (Homo sapiens) (UniProt P07948); test: Inhibition of full length human N-terminal 6His-tagged LYN expressed in baculovirus expression system at 100 nM relative to control
Chain of Tyrosine-protein kinase Lyn (Homo sapiens) (P07948 2-512 limits assumed): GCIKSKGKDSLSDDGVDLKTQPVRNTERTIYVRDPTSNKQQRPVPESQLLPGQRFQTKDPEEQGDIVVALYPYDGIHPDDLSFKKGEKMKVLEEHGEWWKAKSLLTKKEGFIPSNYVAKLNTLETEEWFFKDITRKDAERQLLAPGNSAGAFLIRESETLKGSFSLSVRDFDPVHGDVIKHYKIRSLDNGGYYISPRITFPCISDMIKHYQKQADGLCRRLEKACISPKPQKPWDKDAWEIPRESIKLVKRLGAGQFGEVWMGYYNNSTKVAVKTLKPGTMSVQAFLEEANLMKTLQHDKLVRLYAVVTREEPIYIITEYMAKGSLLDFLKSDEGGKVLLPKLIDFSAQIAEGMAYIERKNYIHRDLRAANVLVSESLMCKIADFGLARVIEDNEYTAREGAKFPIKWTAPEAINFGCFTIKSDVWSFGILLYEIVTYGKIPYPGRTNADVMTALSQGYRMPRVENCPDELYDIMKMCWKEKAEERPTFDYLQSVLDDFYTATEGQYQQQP

[18] = target: Tyrosine-protein kinase Lck (Homo sapiens) (UniProt P06239); test: Inhibition of full length human N-terminal 6His-tagged LCK expressed in baculovirus expression system at 100 nM relative to control
Chain of Tyrosine-protein kinase Lck (Homo sapiens) (P06239 2-509 limits assumed): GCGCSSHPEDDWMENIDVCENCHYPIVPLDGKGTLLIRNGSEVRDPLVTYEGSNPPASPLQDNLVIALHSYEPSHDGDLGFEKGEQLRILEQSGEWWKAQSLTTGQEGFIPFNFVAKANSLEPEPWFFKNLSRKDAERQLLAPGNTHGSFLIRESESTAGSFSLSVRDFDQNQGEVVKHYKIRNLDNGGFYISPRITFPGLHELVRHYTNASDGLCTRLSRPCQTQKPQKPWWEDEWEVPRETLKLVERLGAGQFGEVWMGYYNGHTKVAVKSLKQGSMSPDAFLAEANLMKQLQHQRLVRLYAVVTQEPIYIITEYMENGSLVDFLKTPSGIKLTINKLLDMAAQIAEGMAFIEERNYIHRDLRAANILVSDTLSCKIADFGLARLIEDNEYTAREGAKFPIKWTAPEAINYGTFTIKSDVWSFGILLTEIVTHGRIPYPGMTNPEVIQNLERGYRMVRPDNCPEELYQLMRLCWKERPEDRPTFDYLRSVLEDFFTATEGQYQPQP

[19] = target: Tyrosine-protein kinase receptor UFO (Homo sapiens) (UniProt P30530); test: Inhibition of full length human N-terminal 6His-tagged AXL expressed in baculovirus expression system at 100 nM relative to control
Chain of Tyrosine-protein kinase receptor UFO (Homo sapiens) (P30530 whole entry): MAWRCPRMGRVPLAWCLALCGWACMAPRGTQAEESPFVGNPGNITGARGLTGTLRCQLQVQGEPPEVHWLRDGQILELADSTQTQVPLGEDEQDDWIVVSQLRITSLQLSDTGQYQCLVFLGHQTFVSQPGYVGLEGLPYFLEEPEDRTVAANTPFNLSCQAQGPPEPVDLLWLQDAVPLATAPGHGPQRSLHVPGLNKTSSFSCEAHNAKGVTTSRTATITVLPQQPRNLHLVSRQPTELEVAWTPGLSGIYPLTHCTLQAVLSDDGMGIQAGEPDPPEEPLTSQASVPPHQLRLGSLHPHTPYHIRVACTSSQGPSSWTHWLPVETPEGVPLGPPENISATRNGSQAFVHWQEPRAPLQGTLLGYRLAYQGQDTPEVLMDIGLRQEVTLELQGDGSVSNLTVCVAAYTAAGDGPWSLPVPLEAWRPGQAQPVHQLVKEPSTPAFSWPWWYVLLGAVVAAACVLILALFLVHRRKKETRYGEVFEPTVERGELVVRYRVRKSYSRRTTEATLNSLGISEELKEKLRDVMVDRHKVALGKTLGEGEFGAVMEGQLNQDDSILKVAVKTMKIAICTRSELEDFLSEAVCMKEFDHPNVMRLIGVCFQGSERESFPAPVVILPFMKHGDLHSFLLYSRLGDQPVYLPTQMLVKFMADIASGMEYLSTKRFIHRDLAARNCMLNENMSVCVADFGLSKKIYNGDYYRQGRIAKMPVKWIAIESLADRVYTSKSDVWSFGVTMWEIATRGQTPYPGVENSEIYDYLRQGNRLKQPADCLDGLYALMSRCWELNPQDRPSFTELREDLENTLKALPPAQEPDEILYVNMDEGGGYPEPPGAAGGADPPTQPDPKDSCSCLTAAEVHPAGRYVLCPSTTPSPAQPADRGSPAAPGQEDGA

[20] = target: Interleukin-1 receptor-associated kinase 1 (Homo sapiens) (UniProt P51617); test: Inhibition of full length human N-terminal 6His-tagged IRAK1 expressed in baculovirus expression system at 100 nM relative to control
Chain of Interleukin-1 receptor-associated kinase 1 (Homo sapiens) (P51617 whole entry, looked up): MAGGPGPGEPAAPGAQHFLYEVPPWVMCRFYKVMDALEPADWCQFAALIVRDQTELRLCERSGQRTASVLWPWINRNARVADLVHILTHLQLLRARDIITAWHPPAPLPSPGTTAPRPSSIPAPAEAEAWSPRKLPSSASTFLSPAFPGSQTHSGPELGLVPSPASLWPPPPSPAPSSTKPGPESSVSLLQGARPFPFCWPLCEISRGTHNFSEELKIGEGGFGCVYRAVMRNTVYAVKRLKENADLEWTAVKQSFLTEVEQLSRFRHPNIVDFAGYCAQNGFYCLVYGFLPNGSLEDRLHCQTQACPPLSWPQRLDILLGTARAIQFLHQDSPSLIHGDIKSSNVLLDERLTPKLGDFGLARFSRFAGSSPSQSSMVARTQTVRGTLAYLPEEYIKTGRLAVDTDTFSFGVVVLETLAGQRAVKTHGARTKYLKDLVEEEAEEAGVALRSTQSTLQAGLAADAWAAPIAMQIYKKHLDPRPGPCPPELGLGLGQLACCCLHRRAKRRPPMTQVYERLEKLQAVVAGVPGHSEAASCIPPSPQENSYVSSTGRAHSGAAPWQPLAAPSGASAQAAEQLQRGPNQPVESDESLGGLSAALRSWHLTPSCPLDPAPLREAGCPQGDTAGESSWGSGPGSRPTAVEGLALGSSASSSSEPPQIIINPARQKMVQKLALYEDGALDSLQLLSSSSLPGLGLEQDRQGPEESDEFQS

[21] = target: Receptor-type tyrosine-protein kinase FLT3 (Homo sapiens, UniProt P36888, D835H)
[22] = target: Receptor-type tyrosine-protein kinase FLT3 (Homo sapiens, UniProt P36888, ITD)
[23] = target: Receptor-type tyrosine-protein kinase FLT3 (Homo sapiens, UniProt P36888, D835V/ITD)
[24] = target: T2, Receptor-type tyrosine-protein kinase FLT3
[25] = test system: T1, Receptor-type tyrosine-protein kinase FLT3 (Homo sapiens), P36888 [D835Y]; test: Inhibition of covalent binding of 100 uM (Z)-N-(2-(2-(4-(2,8-Diethyl-5,5-difluoro-1,3,7,9-tetramethyl-5H-4lambda4,5lambda4-dipyrrolo[1,2-c:2',1'-f ][1,3,2]diazaborinin-10-yl)phenoxy)-acetamido)ethyl)-2,4-dimethyl-5-((2-oxo-5-(vinylsulfon-amido)-indolin-3-ylidene)methyl)-1H-pyrrole-3-carboxamide to recombinant human FLT3 D835Y mutant (571 to 993 residues) expressed in baculovirus expression system at 100 uM by Western blot analysis
THP-1 = test: cells; details: Homo sapiens, THP-1, 72 h
Jurkat = test: cells; details: Homo sapiens, 72 h
MOLM-14 = test: cells; details: Homo sapiens, MOLM-14, 72 h

SMILES: Cc1cc(Nc2ccnc(Nc3ccccc3)n2)n[nH]1
- Activity (MV4-11 [1]): 89%
- IC50 (MV4-11 [2]): > 1 nM

SMILES: C=CS(=O)(=O)Nc1ccc2c(c1)/C(=C/c1[nH]c(C)c(C(=O)NCCN(CC)CC)c1C)C(=O)N2
- inhibition [3]: 68%
- inhibition [4]: 37%
- Ki [5]: 1.98 nM
- inhibition [6]: 95%
- inhibition [7]: 99%
- inhibition [8]: 34%
- inhibition [9]: inactive
- inhibition [10]: inactive
- inhibition [11]: inactive
- inhibition [12]: inactive
- inhibition [13]: 24%
- inhibition [14]: 14%
- Kd [15]: 65 nM
- inhibition [16]: 96%
- inhibition [17]: 81 to 93%
- inhibition [18]: 81 to 93%
- inhibition [19]: 81 to 93%
- inhibition [20]: 81 to 93%
- Kd [21]: 1.3 nM
- Kd [22]: 5.8 nM
- Kd [23]: 0.83 nM
- Kd [24]: 2.3 nM
- inhibition [25]: 28%
- IC50 (MV4-11 [2]): 6 nM
- IC50 (THP-1): > 1000 nM
- IC50 (Jurkat): > 1000 nM
- IC50 (MOLM-14): 7.8 nM
